Laboratory results taken from patent US8912121B2, “Herbicidal compositions comprising 4-amino-3-chloro-5-fluoro-6-(4-chloro-2-fluoro-3-methoxyphenyl)pyridine-2-carboxylic acid or a derivative thereof and certain PS II inhibitors” (Dow Agrosciences LLC, priority 2012, dated 2014).

Columns and labels:
[1] = test system: ABUTH (Abutilon theophrasti, velvetleaf); test: Pre-emergence soil-applied mixtures, greenhouse; type: in vivo, Abutilon theophrasti Medik.
Excerpt: (§1) Seeds or nutlets of the desired test plant species were planted in a soil matrix prepared by mixing a loam soil (32 percent silt, 23 percent clay, and 45 percent sand, with a pH of about 6.5 and an organic matter content of about 1.9 percent) and calcareous grit in an 80 to 20 ratio. The soil matrix was contained in plastic pots with a volume of 1 quart and a surface area of 83.6 square centimeters (cm^2).
(§2) Treatments consisted of the benzyl ester of 4-amino-3-chloro-5-fluoro-6-(4-chloro-2-fluoro-3-methoxy-phenyl)pyridine-2-carboxylic acid (compound A) formulated as an SC (suspension concentrate) and various herbicidal components alone and in combination. Forms of compound A were applied on an acid equivalent basis.
(§3) Other herbicidal components were applied on an acid equivalent or active ingredient basis and included the PSII-inhibiting herbicides, atrazine formulated as Atrazine® 90WDG, metribuzin formulated as Metribuzin 75DF, simazine formulated as Princep Caliber 90, tebuthiuron formulated as Spike 80DF, cyanazine (technical grade material), hexazinone (technical grade material), linuron (technical grade material), terbuthylazine (technical grade material), and diuron formulated as Diuron 4L.
(§4) Treatment requirements were calculated based upon the rates being tested, the concentration of active ingredient or acid equivalent in the formulation, and a 12 mL application volume at a rate of 187 L/ha.
For treatments comprised of formulated compounds, measured amounts of compounds were placed individually in 25 mL glass vials and diluted in a volume of 1.25% (v/v) Agri-Dex® crop oil concentrate (COC) to obtain 12× stock solutions. […] Application solutions were prepared by adding an appropriate amount of each stock solution (e.g., 1 mL) and diluted to the appropriate final concentrations with the addition of 10 mL of an aqueous mixture of 1.25% (v/v) COC so that the final spray solutions contained 1.25% (v/v) COC.
For treatments comprised of technical compounds, weighed amounts can be placed individually in 25 mL glass vials and dissolved in a volume of 97:3 (v/v) acetone/DMSO to obtain 12× stock solutions. […] Application solutions can be prepared by adding an appropriate amount of each stock solution (e.g., 1 mL) and diluted to the appropriate final concentrations with the addition of 10 mL of an aqueous mixture of 1.5% (v/v) COC so that the final spray solutions contain 1.25% (v/v) COC. When technical materials are used, the concentrated stock solutions can be added to the spray solutions so that the final acetone and DMSO concentrations of the application solutions are 16.2% and 0.5%, respectively.
For treatments comprised of formulated and technical compounds, weighed amounts of the technical materials can be placed individually in 25 mL glass vials and dissolved in a volume of 97:3 (v/v) acetone/DMSO to obtain 12× stock solutions, and measured amounts of the formulated compounds can be placed individually in 25 mL glass vials and diluted in a volume of 1.5% (v/v) COC or water to obtain 12× stock solutions. […] Application solutions can be prepared by adding an appropriate amount of each stock solution (e.g., 1 mL) and diluted to the appropriate final concentrations with the addition of an appropriate amount of an aqueous mixture of 1.5% (v/v) COC so that the final spray solutions contain 1.25% (v/v) COC. […]

[2] = test system: SETVI (Setaria viridis, green foxtail); test: Pre-emergence soil-applied mixtures, greenhouse; type: in vivo, Setaria viridis (L.) Beauv.
Excerpt: as §1, §2, §3, §4
For treatments comprised of formulated compounds, measured amounts of compounds were placed individually in 25 mL glass vials and diluted in a volume of 1.25% (v/v) Agri-Dex® crop oil concentrate (COC) to obtain 12× stock solutions. […]
For treatments comprised of formulated and technical compounds, weighed amounts of the technical materials can be placed individually in 25 mL glass vials and dissolved in a volume of 97:3 (v/v) acetone/DMSO to obtain 12× stock solutions, and measured amounts of the formulated compounds can be placed individually in 25 mL glass vials and diluted in a volume of 1.5% (v/v) COC or water to obtain 12× stock solutions. […]

[3] = Compound A Benzyl Ester 16 g ae/ha
[4] = Compound A Benzyl Ester 32 g ae/ha

COc1c(Cl)ccc(-c2nc(C(=O)OCc3ccccc3)c(Cl)c(N)c2F)c1F [Compound A Benzyl Ester, benzyl ester of 4-amino-3-chloro-5-fluoro-6-(4-chloro-2-fluoro-3-methoxy-phenyl)pyridine-2-carboxylic acid]
Visual Weed Control (%)-29 DAA ABUTH Obs [1, 3]: 65% | Visual Weed Control (%)-29 DAA ABUTH Obs [1, 4]: 93% | Visual Weed Control (%)-29 DAA SETVI Obs [2, 3]: 10% | Visual Weed Control (%)-29 DAA SETVI Obs [2, 4]: 10%
